From patent US20090082368A1, “METHODS OF MODULATING NEUROTROPHIN-MEDIATED ACTIVITY” (PainCeptor Pharma Corporation, priority 2007, published 2009)
pIC50: −log10 of the molar value. Like-named read-outs stand apart in the source and are kept apart here.

Columns and labels:
[1] = test system: NGF-induced ERK phosphorylation; assay: Inhibition of NGF-induced Erk 1/2 phosphorylation (pERK); type: cell-based; conditions: Rattus norvegicus, Table 2
Description: This assay is useful for establishing that the compounds of the invention are functional NGF antagonists, not receptor agonists (an agonist could conceivably block NGF binding but actually activate the receptor). Erk 1/2 is a kinase activated down stream of TrkA and is a well studied member of the NGF-induced signal transduction cascade.
PC12 cells expressing TrkA and p75 are acutely exposed to 1 ng/mL NGF (15 min; 37° C.; 5% CO2) that is pre-incubated (30 min; room temperature) with or without the compounds. Cells are lysed in Laemmli sample buffer (for SDS-PAGE) or a lysis buffer containing Triton X-100 (for ELISA). Following SDS-PAGE, proteins are electroblotted onto nitrocellulose and immunoprobed for phosphorylated Erk 1 and 2. Blocking and primary antibody incubations of immunoblots are performed in Tris-buffered saline-Tween (10 mM Tris, pH 8.0, 150 mM NaCl, and 0.2% Tween 20) supplemented with 5% (w/v) bovine serum albumin (BSA); secondary antibody incubations are performed in 5% (w/v) dried skim milk powder. Immunoreactive bands are detected by chemiluminescence.
A quantitative method to detect phosphorylated Erk 1/2 by immunofluorescence is also used. Neuroscreen-1 cells are grown in a 96 well plate. NGF preincubated with or without the compounds for 30 minutes, is added to the cells for 5 minutes at 37° C. Cells are then fixed and stained with an antibody against phosphor-ERK 1/2. A fluorescently labeled secondary antibody is used to show the presence of phosphorylated ERK 1/2. Quantitative results are generated by photographing the wells with light of the appropriate wavelength, followed by software based image analysis.

[2] = test system: NGF receptors on PC12 cells (TrkA+p75); assay: NGF binding (125I-NGF) using PC12 cells; design: species or system rat
Description: NGF binding was evaluated using methods familiar to those who are skilled in the art. Briefly, cells expressing one or both NGF receptors (PC12: TrkA+p75; A875: p75 alone; HEK/CHO_trkA: TrkA alone) were harvested by replacing the medium with the cell dissociation buffer (Amersham) and incubating at 37° C. for 15 min. […] For most compounds, multiple dose-response curves were generated.
The IC50 data shown in Tables A-J were acquired using the procedure described herein using PC12 cells.

PC12 cells = assay: Inhibition of NGF-induced neurite outgrowth; type: cell-based; conditions: Rattus norvegicus, PC-12, 96 h, Table 3, 4 days exposure to NGF
Description: This assay is run as a further functional marker of NGF antagonism and takes advantage of the differentiation of PC12 cells (neurite outgrowth) induced by NGF. Cultures of PC12 cells are grown on Terasaki plates pre-coated with poly-D-lysine. Cells are exposed to NGF (1-50 (preferably 5) ng/ml) to induce neurite outgrowth as described elsewhere [LA Greene & AS Tischler, Establishment of a noradrenergic clonal line of rat adrenal pheochromocytoma cells which respond to nerve growth factor, Proc Natl Acad Sci USA. 1976 July; 73(7): 2424-2428]. In addition to NGF, cells are exposed to varying concentration of the compounds or vehicle. Following 4 days of exposure to NGF in the presence or absence of compound, neurite outgrowth is quantified. A neurite is scored if its caliber from origin to terminal is approximately the same and the length is equal to or greater than 1.5 the cell body diameter. The number of neurite bearing cells per total number of viable cells is calculated for each condition; the number of cells with neurites in the presence of NGF (without compound exposure) is considered to represent maximal (100%) outgrowth, to which the inhibitory effect of compounds of the invention on NGF-induced outgrowth is compared.

[3] = Table A (Formula Ia), NGF binding, PC12 cells, read-out: IC50
[4] = Table B (Formula Ib), NGF binding, PC12 cells, read-out: IC50
[5] = Table 3, read-out: NGF Binding Assay IC50
[6] = Table I (Formula VII), NGF binding, PC12 cells, read-out: IC50
[7] = Table 2, read-out: NGF Binding Assay IC50
[8] = Table J (Formula VIII), NGF binding, PC12 cells, read-out: IC50

SMILES | pIC50 [1] | pIC50 [2, 8] | other results
O=C(O)CCCN1C(=O)c2ccc(-c3ccc4c(c3)C(=O)N(CCCC(=O)O)C4=O)cc2C1=O [Compound 1C] | 5.30 to 7.00 |  | 
O=C(O)CCCN1C(=O)c2ccc(C(=O)O)cc2C1=O [Compound 1] |  |  | pIC50 [2, 3]: < 4.30
O=C(O)CCCCN1C(=O)c2ccc(C(=O)O)cc2C1=O [Compound 2] |  |  | pIC50 [2, 3]: < 4.30
O=C(O)c1ccc(Cl)c(N2C(=O)c3ccc4c5c(ccc(c35)C2=O)C(=O)N(c2cc(C(=O)O)ccc2Cl)C4=O)c1 [Compound 3D] |  |  | pIC50 (PC12 cells): 5.30 to 7.00
O=C(O)c1cccc(N2C(=O)c3ccc(C(=O)O)cc3C2=O)c1 [Compound 3] |  |  | pIC50 [2, 3]: < 4.30
O=C(O)c1ccc2c(c1)C(=O)N(c1cc(C(=O)O)ccc1Cl)C2=O [Compound 6] |  |  | pIC50 [2, 3]: < 4.30
N#Cc1ccc2c(c1)CN(c1cccc(C(=O)O)c1)C2=O [Compound 8A] |  |  | pIC50 [2, 4]: < 4.30
O=C(O)CCN1C(=O)c2ccc(-c3ccc4c(c3)C(=O)N(CCC(=O)O)C4=O)cc2C1=O [Compound 9C] | 4.82 to 5.30 |  | 
Nc1ccc(C(=O)O)cc1N1C(=O)c2ccc3c4c(ccc(c24)C1=O)C(=O)N(C(CCC(=O)O)C(=O)O)C3=O (stereo not drawn) [Compound 9D] | 4.82 to 5.30 |  | pIC50 (PC12 cells): 5.30 to 7.00
O=C(O)CCCCN1C(=O)c2ccc(-c3ccc4c(c3)C(=O)N(CCCCC(=O)O)C4=O)cc2C1=O [Compound 10C] | 5.30 to 7.00 |  | 
O=C1c2ccc(-c3ccc4c(c3)C(=O)N(CCCS(=O)(=O)O)C4=O)cc2C(=O)N1CCCS(=O)(=O)O [Compound 11C] | 5.30 to 7.00 |  | 
O=C(O)c1cccc(N2Cc3cc(C(=O)O)ccc3C2=O)c1 [Compound 12A, 2-(3-Carboxyphenyl)-1-oxoisoindoline-5-carboxylic acid] |  |  | pIC50 [2, 5]: 4.54 to 5.00; pIC50 [2, 4]: 4.54 to 5.00; pIC50 (PC12 cells): 4.82 to 5.30
CCOC(=O)c1cccc(N2Cc3cc(C(=O)O)ccc3C2=O)c1 [Compound 15A] | 4.82 to 5.30 |  | 
CN(C)c1cc2c3c(cc(N(C)C)cc3c1)C(=O)N(CCCC(=O)O)C2=O [Compound 15G] |  |  | pIC50 [2, 6]: 4.30 to 4.52
CC(C)Nc1cc2c3c(cc(NC(C)C)cc3c1)C(=O)N(CCCC(=O)O)C2=O [Compound 16G] |  |  | pIC50 [2, 6]: 4.54 to 5.00
O=C(O)CCCN1C(=O)c2cc(C(=O)O)cc3cc([N+](=O)[O-])cc(c23)C1=O [Compound 17G, 2-(3-Carboxypropyl)-8-nitro-1,3-dioxo-2,3-dihydro-1H-benzo[de]isoquinoline-5-carboxylic acid] |  |  | pIC50 [2, 6]: > 5.00
Nc1cc2c3c(cc(C(=O)O)cc3c1)C(=O)N(CCCC(=O)O)C2=O [Compound 18G, 8-Amino-2-(3-carboxypropyl)-1,3-dioxo-2,3-dihydro-1H-benzo[de]isoquinoline-5-carboxylic acid] |  |  | pIC50 [2, 6]: > 5.00
O=C(O)c1ccc(Cl)c(N2C(=O)c3cccc([N+](=O)[O-])c3C2=O)c1 [Compound 18] |  |  | pIC50 [2, 3]: < 4.30
O=C(O)CCCCCN1C(=O)c2ccc(-c3ccc4c(c3)C(=O)N(CCCCCC(=O)O)C4=O)cc2C1=O [Compound 19C] | 5.30 to 7.00 |  | 
CC(=O)Nc1cc2c3c(cc(C(=O)O)cc3c1)C(=O)N(CCCC(=O)O)C2=O [Compound 19G, 8-(Acetylamino)-2-(3-carboxypropyl)-1,3-dioxo-2,3-dihydro-1H-benzo[de]isoquinoline-5-carboxylic acid] | 4.82 to 5.30 |  | pIC50 [2, 7]: > 5.00; pIC50 [2, 6]: > 5.00
N#Cc1cc2c3c(cc(C#N)cc3c1)C(=O)N(CCCC(=O)O)C2=O [Compound 20G] |  |  | pIC50 [2, 6]: > 5.00
O=C(O)CCCCCCN1C(=O)c2ccc(-c3ccc4c(c3)C(=O)N(CCCCCCC(=O)O)C4=O)cc2C1=O [Compound 21C] | 4.82 to 5.30 |  | 
O=C(O)c1cccc(N2C(=O)c3cc(-n4cccc4)cc4cc(-n5cccc5)cc(c34)C2=O)c1 [Compound 21G] |  |  | pIC50 [2, 6]: < 4.30
O=C(O)c1ccc2c(c1)C(=O)N(CCN1C(=O)c3ccc(C(=O)O)cc3C1=O)C2=O [Compound 41C] |  |  | pIC50 ([2]; Table E (Formula IIIA), NGF binding, PC12 cells, read-out: IC50): > 5.00
O=C(O)CCCN1C(=O)c2cccc3cc(-c4cccc(C(=O)O)c4)cc(c23)C1=O [Compound 45G] | 4.60 to 4.82 |  | 

Now from value to molecule, other results behind:

pIC50 [1] | pIC50 [2, 8] | SMILES | other results
4.82 to 5.30 |  | O=C(O)CCCCCCCN1C(=O)c2ccc(-c3ccc4c(c3)C(=O)N(CCCCCCCC(=O)O)C4=O)cc2C1=O [Compound 22C] | 
5.30 to 7.00 |  | O=C(O)CCCN1C(=O)c2ccc(-c3ccc4c(c3)C(=O)N(CCCc3nnn[nH]3)C4=O)cc2C1=O [Compound 23C] | 
 | < 4.30 | O=C(O)CCCN1C(=O)c2cccc3cccc(c23)C1=O [Compound 26G] | 
 | > 5.00 | O=C(O)CCCN1C(=O)c2cccc3cc([N+](=O)[O-])cc(c23)C1=O [Compound 27G, 4-(5-Nitro-1,3-dioxo-1H-benzo[de]isoquinolin-2(3H)-yl)butanoic acid] | 
 | > 5.00 | Nc1cc2c3c(cccc3c1)C(=O)N(CCCC(=O)O)C2=O [Compound 28G, 4-(5-Amino-1,3-dioxo-1H-benzo[de]isoquinolin-2(3H)-yl)butanoic acid] | 
 | > 5.00 | CC(=O)Nc1cc2c3c(cccc3c1)C(=O)N(CCCC(=O)O)C2=O [Compound 29G] | 
 | 4.54 to 5.00 | NC(=O)c1cc2c3c(cccc3c1)C(=O)N(CCCC(=O)O)C2=O [Compound 30G] | 
 | < 4.30 | CN(C)S(=O)(=O)c1cc2c3c(cccc3c1)C(=O)N(CCCC(=O)O)C2=O [Compound 31G] | 
4.82 to 5.30 | > 5.00 | N#Cc1cc2c3c(cccc3c1)C(=O)N(CCCC(=O)O)C2=O [Compound 32G] | pIC50 [2, 7]: > 5.00; pIC50 [2, 5]: > 5.00; pIC50 (PC12 cells): 4.82 to 5.30
 | 4.54 to 5.00 | O=C(O)CCCN1C(=O)c2cccc3cc(C(=O)O)cc(c23)C1=O [Compound 33G] | 
 | 4.54 to 5.00 | N#Cc1ccc2c3c(cccc13)C(=O)N(CCCC(=O)O)C2=O [Compound 34G] | 
 | 4.54 to 5.00 | O=C(O)CCCN1C(=O)c2cccc3c([N+](=O)[O-])ccc(c23)C1=O [Compound 35G] | 
 | 4.30 to 4.52 | O=C(O)CCCN1C(=O)c2cccc3c(Br)ccc(c23)C1=O [Compound 36G] | 
 | < 4.30 | O=C(O)CCCN1C(=O)c2cccc3c(S(=O)(=O)O)ccc(c23)C1=O [Compound 37G] | 
 | 4.54 to 5.00 | O=C(O)CCCN1C(=O)c2cccc3c(Cl)ccc(c23)C1=O [Compound 38G] | 
 | 4.54 to 5.00 | O=C(O)CCCN1C(=O)c2cccc3c(C(=O)O)ccc(c23)C1=O [Compound 39G] | 
 | 4.54 to 5.00 | O=C(O)CCCN1C(=O)c2cccc3c(C(=O)c4ccccc4)ccc(c23)C1=O [Compound 40G] | 
 | > 5.00 | CN(C)S(=O)(=O)c1ccc2c3c(cccc13)C(=O)N(CCCC(=O)O)C2=O [Compound 41G] | 
4.82 to 5.30 |  | O=C(O)CCCN1C(=O)c2cccc3cc(-c4nnn[nH]4)cc(c23)C1=O [Compound 46G] | pIC50 (PC12 cells): 4.82 to 5.30
